Assay results taken from PMC9490041, “Determinants of affinity, specificity, and phase separation in a supramodule from Post-synaptic density protein 95” (iScience, 2022).

What was measured:
PSG G322A G335A (PSD-95) = test: FP saturation binding of FITC-15 AA CRIPT probe; conditions: read-out: Kd probe, 5 nM FITC-15 AA CRIPT, room temperature
PSG (PSD-95) = test: FP saturation binding of FITC-15 AA CRIPT probe; conditions: read-out: Kd probe, 5 nM FITC-15 AA CRIPT, room temperature, PSG WT

- Kd (PSG G322A G335A (PSD-95)): 160 ± 20 nM
- Kd (PSG (PSD-95)): 2200 ± 220 nM
Compound: CC(C)C[C@H](NC(=O)[C@@H](NC(=O)[C@H](CCCCN)NC(=O)[C@H](CCCCN)NC(=O)[C@H](Cc1ccc(O)cc1)NC(=S)Nc1ccc2c(c1)C(=O)OC21c2ccc(O)cc2Oc2cc(O)ccc21)C(C)C)C(=O)N[C@@H](CC(=O)O)C(=O)N[C@H](C(=O)N[C@@H](CCCCN)C(=O)N[C@@H](CC(N)=O)C(=O)N[C@@H](Cc1ccc(O)cc1)C(=O)N[C@@H](CCCCN)C(=O)N[C@@H](CCC(N)=O)C(=O)N[C@H](C(=O)N[C@@H](CO)C(=O)N[C@H](C(=O)O)C(C)C)[C@@H](C)O)[C@@H](C)O [FITC-15 AA CRIPT]
